Test results taken from patent publication US20060222628A1, “Gallium complexes of 3-hydroxy-4-pyrones to treat infection by intracellular prokaryotes and DNA viruses” (priority 1999, published 2006).

Key:
HIV = experiment: Clinical evaluation for prevention of CMV disease in HIV patients: HIV; assay type: in vivo; details: CMV prevention study; MacSynergy II
Protocol: Patients are treated once per day with gelatin capsules containing gallium maltolate. The population of patients with CMV (almost universal, seropositive or culture positive patients) and HIV infection are first divided into two subpopulations groups based on CD4+ counts (above 350/mm^3 and below 350/mm^3). The subpopulations are randomly and blindly divided into two groups each randomly subdivided into subgroups for a total of sixteen approximately equal subgroups that receive either 0 (placebo), 250, 500, or 750 mg/day gallium maltolate for about six months. All subgroups receive the identical regimen of non-gallium antiretroviral therapy as described in Example 5 (a HAART regime). […] In each subpopulation, the first group's four subgroups from each subpopulation (above 350/mm^3 and below 350/mm^3) additionally receive the gallium maltolate dose together with 5500 mg foscarnet, IV infusion over 1.5-2 hr., twice per day. In each subpopulation, the second group's four subgroups receive the gallium maltolate dose together with 1000 mg ganciclovir four times per day. Patients are monitored for HIV disease precisely as described in Example 5. Patients are also medically monitored for CMV disease, including testing and examination for medical symptoms of CMV disease, such as CMV retinitis, throughout the study. Any mucosal or skin lesions are studied by in situ hybridization for CMV DNA. […]

EBV and KSV = experiment: Clinical evaluation for prevention of EBV or KSV neoplasms in HIV patients: neoplasia; assay type: in vivo, human
From the text: Both EBV and KSV cause neoplasms, with both causing lymphomas and KSV ([…]) along with HHV-7, possibly in concert with HHV-6 associated with the pathogenesis of Kaposi Sarcoma. Most humans carry all these viruses. A HIV population could be studied without determining whether any of the patients are seropositive or culturable for these pathogens, or preferably a group of HIV patients who are seropositive or culture positive for both EBV and KSV can be identified. Applying the methods of Example 12 with additional guidance from Schneider et al. (2000), supra, yields a protocol for evaluating the contribution of the gallium compounds of the invention in prevention of opportunistic neoplasms caused by the herpes viruses with combination antiviral therapy.
Using essentially the same protocol as Example 12, but with an HIV infected patient population that is seropositive or culture positive for both EBV and KSV and substituting the specific assays such as PCR, serodetection for the EBV and KSV viruses, the role of gallium as a combination agent in preventing the neoplasms caused by members of the herpesvirus family in HIV disease can be evaluated. The subpopulations are divided according to CD4 counts as in Example 12. Each subpopulation's first group is treated in addition to the foscarnet with interferon-alpha. Each subpopulation's second group is treated in addition to the ganciclovir with the same doses of foscarnet and interferon-alpha as the first group. The dosages of the foscarnet and are as in Example 12, as are the dosages for the gallium maltolate for each groups four subgroups. Thus within each subpopulation, gallium plus foscarnet plus traditional HAART is compared to gallium plus foscarnet plus traditional HAART plus ganciclovir. An all oral regimen would be preferable but success would be unlikely. The dosage level for the interferon-alpha used is that used for treating Kaposi Sarcoma (20 million IU every day by injection), a dose that may require adjustment for tolerance in some patients. […]

[1] = Stability of the 3:1 complex in aqueous solutions at various pH by ultraviolet spectroscopy; assay type: physicochemical; details: 1.0×10^−2 M in water, 25° C.
Protocol: The pH was adjusted by adding either 1N HCl or 1N Na2CO3. The stability of the complex was determined using ultraviolet spectroscopy over the region 200-450 nm at 25° C. Several absorption peaks are observed in this range, including those at about 212-217 nm, 248 nm, 273 nm, 318 nm, and 385 nm. An isobesic point occurs over much of the pH range at about 290 nm. In the very dilute solutions (2.5×10^−6 M), the neutral 3:1 complex appears to be stable from about pH 4.5 to 9.5. For the less dilute solutions (1.0×10^−2 M), the determination was more difficult due to the very high absorbance.

Varicella-Zoster (VZV) = experiment: Clinical evaluation for Varicella-Zoster (VZV) infection and recurrences; assay type: in vivo, human
Protocol: Gallium maltolate is evaluated clinically for efficacy in treating Varicella-Zoster (VZV) infection in HIV negative individuals who show no signs of immune dysfunction of any type. Patients with VZV infection are treated once per day with gelatin capsules containing gallium maltolate. The population of patients is divided into subpopulation with recurrent VZV (shingles) and acute VZV infections (chickenpox) respectively. These different subpopulations are divided randomly and blindly into two approximately equal groups with four approximately equal subgroups that receive either 0 (placebo), 250, 500, or 750 mg/day gallium maltolate for about six months. The first group of each subpopulation receive the gallium maltolate dose together with 800 mg acyclovir five times per day. The second group of each subpopulation receive the gallium maltolate dose together with 500 mg ganciclovir twice per day. Patients are medically monitored for resolution reoccurrences of latent VZV infection, or medical symptoms of acute VZV infection throughout the study, with the monitoring including in situ hybridization of skin lesions for VZV DNA. In addition for the acute VZV infected group, blood serum samples are obtained from the patients at days 1-5 and are assayed for VZV particles by routine methods and for VZV DNA (viral load assay) using PCR.

Herpes Simplex = experiment: Clinical evaluation for Herpes Simplex (I or II) infection and recurrences; assay type: in vivo, human
Protocol: Patients with Herpes Simplex infection are treated once per day with gelatin capsules containing gallium maltolate. The population of patients is divided into subpopulation with recurrent Herpes Simplex and acute Herpes Simplex infections respectively. These different subpopulations are divided randomly and blindly into two approximately equal groups with four approximately equal subgroups that receive either 0 (placebo), 250, 500, or 750 mg/day gallium maltolate for about six months. The first group of each subpopulation receive the gallium maltolate dose together with 200 mg acyclovir five times per day. The second group of each subpopulation receive the gallium maltolate dose together with 500 mg ganciclovir twice per day. Patients are medically monitored for resolution recurrences of latent Herpes Simplex infection, or medical symptoms of acute Herpes Simplex infection throughout the study, with the monitoring including in situ hybridization of skin lesions for HSV DNA. In addition for the acute Herpes Simplex infected group, blood serum samples are obtained from the patients at days 0, 3, 7, and 10 and are assayed for HSV particle by routine methods and for Herpes Simplex DNA (viral load assay) using PCR.

transferrin (Tf) = molecular target: T1, transferrin (Tf) (Homo sapiens, UniProt P02787); details: oral, versus intravenous gallium nitrate; cited from earlier work
T1 construct: host or cells: circulating (blood plasma) transferrin of the dosed subject
T1 sequence (P02787 20-698, species assumed): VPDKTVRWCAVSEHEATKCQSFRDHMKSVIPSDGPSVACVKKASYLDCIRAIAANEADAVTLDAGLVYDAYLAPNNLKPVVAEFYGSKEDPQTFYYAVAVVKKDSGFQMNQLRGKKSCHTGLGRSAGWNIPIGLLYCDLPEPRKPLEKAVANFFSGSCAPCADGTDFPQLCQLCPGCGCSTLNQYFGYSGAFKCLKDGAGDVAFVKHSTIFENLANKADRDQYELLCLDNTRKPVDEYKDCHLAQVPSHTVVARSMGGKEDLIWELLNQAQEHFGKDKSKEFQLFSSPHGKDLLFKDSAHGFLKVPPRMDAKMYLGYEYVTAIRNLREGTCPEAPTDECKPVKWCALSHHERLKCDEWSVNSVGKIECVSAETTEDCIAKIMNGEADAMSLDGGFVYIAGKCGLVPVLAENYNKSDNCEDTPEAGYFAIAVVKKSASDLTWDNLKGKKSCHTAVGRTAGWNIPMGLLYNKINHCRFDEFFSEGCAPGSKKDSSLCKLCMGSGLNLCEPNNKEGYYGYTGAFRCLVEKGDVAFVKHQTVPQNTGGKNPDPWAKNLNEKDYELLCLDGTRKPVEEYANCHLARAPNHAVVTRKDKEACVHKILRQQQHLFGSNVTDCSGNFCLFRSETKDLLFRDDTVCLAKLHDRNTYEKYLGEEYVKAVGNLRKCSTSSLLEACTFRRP

[2] = in vivo
From the text: Gallium is absorbed very poorly when orally administered as salts such as the chloride or nitrate (Collery et al. (1989), “Clinical pharmacology of gallium chloride after oral administration in lung cancer patients,” Anticancer Res. 9:353-356; Ho et al. […] J.

[3] = HIV negative patients, 250-750 mg/day oral with acyclovir or ganciclovir

Compound: Cc1occc(=O)c1[O-].Cc1occc(=O)c1[O-].Cc1occc(=O)c1[O-].[Ga+3] [gallium maltolate, tris(3-hydroxy-2-methyl-4H-pyran-4-onato)gallium]
- Synergy with the HAART regime on HIV infection (HIV): synergistic with the HAART regime in their effects upon the HIV infection
- Efficacy in preventing herpesvirus neoplasia in combination (EBV and KSV; HIV infected patients on HAART, with foscarnet, interferon-alpha, ganciclovir): effective in combination with foscarnet, interferon and ganciclovir
- Prevention of opportunistic herpesvirus associated neoplasms (EBV and KSV; combined with foscarnet, ganciclovir and interferon, high CD4+ group): producing the best results
- Synergy in preventing herpesvirus neoplasia (EBV and KSV; with foscarnet, interferon and ganciclovir): synergistic with all
- Stability region (pH) [1]: very similar to that of the highly dilute solution, possibly slightly wider
- Efficacy in treating VZV infection (Varicella-Zoster (VZV); [3]): effective for treating VZV infection, including recurrent sores as well as more serious systemic disease
- Efficacy of combination with acyclovir or ganciclovir versus single agents (Varicella-Zoster (VZV); VZV): more effective than either agent alone
- Synergy with nucleoside analogs (Varicella-Zoster (VZV); VZV, MacSynergy II): synergy of gallium with both nucleoside analogs is also demonstrated
- Efficacy in treating Herpes Simplex infection (Herpes Simplex; [3]): effective for treating Herpes Simplex infection, including recurrent sores as well as more serious systemic disease
- Efficacy of combination with acyclovir or ganciclovir versus single agents (Herpes Simplex; Herpes Simplex): more effective than either agent alone
- Synergy with nucleoside analogs (Herpes Simplex; Herpes Simplex, MacSynergy II): synergy of gallium with both nucleoside analogs is also demonstrated
- Tf binding of absorbed gallium and tissue distribution (transferrin (Tf)): higher Tf binding of absorbed gallium and therefore better tissue distribution than intravenous gallium nitrate
- Oral gallium absorption relative to gallium salts [2]: roughly ten times higher than from gallium salts
